Experimental data taken from ChEMBL document CHEMBL1157785, “Identification of 4,5-dihydro-1H-pyrazolo[4,3-h]quinazoline derivatives as a new class of orally and selective Polo-like kinase 1 inhibitors” (J Med Chem, 2010).
Converted amounts (≈) assume the structure as drawn.

Experiment: Solubility at pH 7 after 24 hrs by LC-MS/MS analysis
Type: physicochemical
Conditions: buffer

Compound | solubility at 24 h
COc1ccccc1Nc1ncc2c(n1)-c1c(c(C(N)=O)nn1C)CC2 | 3 µM (≈ 1.05 µg/mL)
Cc1ccccc1Nc1ncc2c(n1)-c1c(c(C(N)=O)nn1C)CC2 | 3 µM (≈ 1 µg/mL)
CSc1ccccc1Nc1ncc2c(n1)-c1c(c(C(N)=O)nn1C)CC2 | 2 µM (≈ 0.733 µg/mL)
COC(=O)c1ccccc1Nc1ncc2c(n1)-c1c(c(C(N)=O)nn1C)CC2 | 2 µM (≈ 0.757 µg/mL)
Cn1nc(C(N)=O)c2c1-c1nc(Nc3ccccc3Cc3ccccc3)ncc1CC2 | < 1 µM
Cn1nc(C(N)=O)c2c1-c1nc(Nc3ccccc3C(N)=O)ncc1CC2 | < 1 µM
Cn1nc(C(N)=O)c2c1-c1nc(Nc3ccccc3S(N)(=O)=O)ncc1CC2 | 4 µM (≈ 1.6 µg/mL)
Cn1nc(C(N)=O)c2c1-c1nc(Nc3ccccc3-c3ccccc3)ncc1CC2 | < 1 µM
Cn1nc(C(N)=O)c2c1-c1nc(Nc3ccccc3Nc3ccccc3)ncc1CC2 | < 1 µM
Cn1nc(C(N)=O)c2c1-c1nc(Nc3ccccc3C(=O)c3ccccc3)ncc1CC2 | < 1 µM
Cn1nc(C(N)=O)c2c1-c1nc(Nc3ccccc3Sc3ccccc3)ncc1CC2 | < 1 µM
CNc1ccccc1Nc1ncc2c(n1)-c1c(c(C(N)=O)nn1C)CC2 | 23 µM (≈ 8.04 µg/mL)
CC(=O)c1ccc(N2CCN(C)CC2)cc1Nc1ncc2c(n1)-c1c(c(C(N)=O)nn1C)CC2 | 18 µM (≈ 8.29 µg/mL)
COc1cc(N2CCN(C)CC2)ccc1Nc1ncc2c(n1)-c1c(c(C(N)=O)nn1C)CC2 | > 225 µM
Cn1nc(C(N)=O)c2c1-c1nc(Nc3ccccc3F)ncc1CC2 | 3 µM (≈ 1.02 µg/mL)
CC(C)c1ccccc1Nc1ncc2c(n1)-c1c(c(C(N)=O)nn1C)CC2 | 2 µM (≈ 0.725 µg/mL)
CC(=O)c1cc(N2CCN(C)CC2)ccc1Nc1ncc2c(n1)-c1c(c(C(N)=O)nn1C)CC2 | 83 µM (≈ 38.2 µg/mL)
Cn1nc(C(N)=O)c2c1-c1nc(Nc3ccccc3Oc3ccccc3)ncc1CC2 | < 1 µM
Cn1nc(C(N)=O)c2c1-c1nc(Nc3ccccc3N)ncc1CC2 | 190 µM (≈ 63.7 µg/mL)
Cn1nc(C(N)=O)c2c1-c1nc(Nc3ccccc3C(F)(F)F)ncc1CC2 | 4 µM (≈ 1.55 µg/mL)
CC(=O)Nc1ccccc1Nc1ncc2c(n1)-c1c(c(C(N)=O)nn1C)CC2 | 16 µM (≈ 6.04 µg/mL)
CC(=O)c1c(Nc2ncc3c(n2)-c2c(c(C(N)=O)nn2C)CC3)cccc1N1CCN(C)CC1 | 170 µM (≈ 78.3 µg/mL)
CC(=O)c1ccccc1Nc1ncc2c(n1)-c1c(c(C(N)=O)nn1C)CC2 | 2 µM (≈ 0.725 µg/mL)
Cn1nc(C(N)=O)c2c1-c1nc(Nc3ccccc3)ncc1CC2 | 3 µM (≈ 0.961 µg/mL)

Experiment: Apparent permeability across human Caco-2 cell membrane at 10 uM after 120 mins by LC-MS/MS analysis
Type: ADME, cell-based
Conditions: not given

Compound | Papp at 2 h, 10 µM
Cn1nc(C(=O)O)c2c1-c1nc(Nc3ccccc3)ncc1CC2 | 2.7 ×10⁻⁶ cm/s
Cn1nc(C(N)=O)c2c1-c1nc(Nc3ccccc3)ncc1CC2 | 58.3 ×10⁻⁶ cm/s
